One experiment relates to MCF-7. In words: SRB in vitro cytotoxicity, human tumor cell line. Format: cell-based. Conditions: MCF7, 10^-5 M, Breast: MCF-7, read-out: growth inhibition. On the procedure:
(§1) Compounds 3a-g were screened by sulforhodamine-B (SRB) semi-automated assay in a battery of cell lines. […] A., et. al. (1991); Feasibility high flux anticancer screen utilizing diverse panel of human tumor cell lines in culture. J Natl Cancer Inst. 83, 757-766]. Each compound was tested in triplicate sets of experiments at 10^-4 to 10^-6 M concentrations (Table 4).
(§2) A stock solution of 2 x 10^-2M was prepared in DMSO. The stock solutions were serially diluted to obtain working test solutions with complete growth medium (RPMI-1640 medium with 2mM glutamine, 100µg/ml streptomycin, pH 7.4, sterilized by filtration and supplemented with 10% fetal bovine serum and 100 units/ml penicillin before use) containing 50 µg/ml of gentamycin to obtain working test solutions. The working test solutions were not filtered/ sterilized but microbial contamination was controlled by addition of gentamycin in complete growth medium used for dilution of stock solutions to prepare working test solutions.
(§3) In vitro cytotoxicity against human cancer cell lines was determined^2 [Monk. A., et. al. (1991); Feasibility high flux anticancer screen utilizing diverse panel of human tumor cell lines in culture. J Natl Cancer Inst. 83, 757-766] using 96-well tissue culture plates. The cells were grown in tissue culture flasks in complete growth medium at 37°C in an atmosphere of 5% CO2 and 95% relative humidity in a carbon dioxide incubator. The cell suspension of required cell density (1-2 lakhs/ml) depending on the mass doubling time of cell lines was prepared in complete growth medium for determination of cytotoxicity. The aliquots of 100 µl of cell suspension were added to each well on a 96-well tissue culture plate. The blank wells contained complete medium in place of cell suspension. Simultaneously, control experiments with positive controls containing known anticancer agents were carried out. Cells were incubated for 24 hr.
(§4) The test materials (100 µl in each well) were added after 24-hours to the wells containing cell suspension and blank wells. The cells were allowed to grow in presence of test material by further incubating the plates for 48 hours. At the end of incubation period the cell growth was stopped by gently layering trichloroacetic acid (50% TCA, 50µl/well) on top of the medium in all the wells. The plates were incubated at 4°C for 1 hr. The plates were washed five times with distilled water to remove TCA, growth medium, low molecular weight metabolites, serum proteins etc. and air-dried.
(§5) The cell growth was measured^3 [Skehan, P, Storeng, R Scudiero, D, Monks, A, Mcmahon, J, Vistica, D, Warren, J.T., Bokesch, H., Kenney, S., Boyd, M.R. (1990). New colorimetric cytotoxicity assay for anti-cancer drug screening. J Natl Cancer Inst. 82: 1107-12] by staining with Sulphorhodamine B. Sulphorhodamine B (SRB, 0.4% in 1% acetic acid, 100 µl/well) was added to each well and plates were allowed to stand at room temperature for 30 minutes. The plates were washed with 1% acetic acid four times and then dried. Tris-HCl buffer (0.01 M, pH 10.5, 100 µl/well) was added to each well to solublise the dye. The plates were shaken gently for 10 minutes on a shaker and the optical density was recorded on ELISA reader at 540 nm. The cell growth was determined by subtracting mean OD value of respective blank from the mean OD value of experimental set. Percent growth in presence of test material was calculated considering the growth in absence of any test material as 100% and in turn percent growth inhibition in presence of test material was calculated. All the experiments were carried out in quadruplicate.

For a further experiment, the system named is SKOV-3. The experiment is described as follows: SRB in vitro cytotoxicity, human tumor cell line. Format: cell-based. Conditions: SK-OV-3, 10^-5 M, Ovarian: SKOV-3, read-out: growth inhibition. On the procedure:
as §1, §2, §3, §4, §5

A further experiment concerns Hep-2. In words: SRB in vitro cytotoxicity, human tumor cell line. Format: cell-based. Conditions: 10^-5 M, Liver: Hep-2, read-out: growth inhibition. On the procedure:
as §1, §2, §3, §4, §5

The next experiment has as its system COLO-205. The experiment is described as follows: SRB in vitro cytotoxicity, human tumor cell line. Format: cell-based. Conditions: 10^-5 M, Colon: COLO-205, read-out: growth inhibition. On the procedure:
as §1, §2, §3, §4, §5

A further experiment has as its system HT-29. In words: SRB in vitro cytotoxicity, human tumor cell line. Format: cell-based. Conditions: 10^-5 M, Colon: HT-29, read-out: growth inhibition. On the procedure: as §1, §2, §3, §4, §5
The next experiment relates to SK-N-SH. The experiment is described as follows: SRB in vitro cytotoxicity, human tumor cell line. Conditions: 10^-5 M, Neuroblastoma: SK-N-SH, read-out: growth inhibition. Format: cell-based. On the procedure:
as §1, §2, §3, §4, §5

For another experiment, the system named is IMR-32. The experiment is described as follows: SRB in vitro cytotoxicity, human tumor cell line. Format: cell-based. Conditions: 10^-5 M, Neuroblastoma: IMR-32, read-out: growth inhibition. The protocol:
as §1, §2, §3, §4, §5

In another experiment the test system is OVCAR-5. The experiment is described as follows: SRB in vitro cytotoxicity, human tumor cell line. Type of experiment: cell-based. Conditions: 10^-5 M, Ovary: OVCAR-5, read-out: growth inhibition. The protocol: as §1, §2, §3, §4, §5
The subject of a further experiment is SW-620. In words: SRB in vitro cytotoxicity, human tumor cell line. Type of experiment: cell-based. Conditions: 10^-5 M, Colon: SW-620, read-out: growth inhibition. The protocol:
as §1, §2, §3, §4, §5

The subject of a further experiment is PC-3. In words: SRB in vitro cytotoxicity, human tumor cell line. Type of experiment: cell-based. Conditions: 10^-5 M, Prostate: PC-3, read-out: growth inhibition. The protocol:
as §1, §2, §3, §4, §5

The subject of another experiment is DU-145. In words: SRB in vitro cytotoxicity, human tumor cell line. Format: cell-based. Conditions: 10^-5 M, Prostate: DU-145, read-out: growth inhibition. The protocol: as §1, §2, §3, §4, §5
The subject of the next experiment is HCT-15. In words: SRB in vitro cytotoxicity, human tumor cell line. Conditions: 10^-5 M, Colon: HCT-15, read-out: growth inhibition. Type of experiment: cell-based. On the procedure:
as §1, §2, §3, §4, §5

The next experiment has as its system A549. In words: SRB in vitro cytotoxicity, human tumor cell line. Format: cell-based. Conditions: 10^-5 M, Lung: A549, read-out: growth inhibition. The protocol:
as §1, §2, §3, §4, §5

The test system of the next experiment is S-180. In words: In vivo anticancer activity: increase in median survival time. Also on record: species or system Swiss albino male mice. Conditions: S-180, 7 injns.

Usually inhibition stands for the change of the read-out against control, counted positive when it falls. For the compound `O=C1c2cccc3c([N+](=O)[O-])ccc(c23)C(=O)N1CCCCl` [Compound 3f, 6-Nitro-2-[3-(Chloropropyl)]-1H-benz[de]isoquinoline-1,3-dione], the inhibition at 10 µM in the experiment with MCF-7 was more than 50%; in the experiment with SKOV-3, not above 50%; in the experiment on Hep-2, more than 50%; with COLO-205, more than 50%; in the experiment with HT-29, more than 50%; in the experiment on SK-N-SH, more than 50%. Moreover, the inhibition at 10 µM in the experiment with IMR-32, with OVCAR-5, in the experiment with SW-620, with PC-3, with DU-145 and with HCT-15 was more than 50% each time. Further, the inhibition at 10 µM with A549 was not above 50%. In addition, the “MST” value in the experiment with S-180 (30 mg/kg i.p., days 1-7) worked out at 25.0 days; in the experiment with S-180 (60 mg/kg i.p., days 1-7) it was 29.0 days; with S-180 (60 mg/kg i.p., days 5-11), 21.0 days.

For the origin of these results see patent EP2118065B1, “Substituted 1H-benz[de]isoquinoline-1,3-diones” (priority 2007, dated 2008).
